According to patent US6660255B1, “Inhibition of gene transcription by polyamide DNA-binding ligands” (California Institute of Technology, priority 1997, dated 2003):
Where two headings read alike, the source gives them in different places.

What was measured:
[1] = tested on: IE86 binding to the CMV MIEP; experiment: DNase I footprinting, IE86 binding to the crs element; set-up: species or system human cytomegalovirus; settings: approximately 250 nM IE86
Excerpt: (§1) These compounds together with purified recombinant IE86 protein were used in DNase I footprint experiments with a singly end-labeled restriction fragment derived from the CMV major immediate early promoter. […] A singly-end labeled restriction fragment was used in DNase I footprinting reactions. […] Lanes 1 and 18 represent a G+A sequencing ladder. […] The location of the TATA box and the start of transcription are indicated.

[2] = tested on: CMV major immediate early promoter; experiment: CMV MIEP transcription in vitro (control template); format: biochemical, human cytomegalovirus; settings: H9/HeLa extract system
Experimental: The effects of polyamides 1 and 2 on HIV-1 transcription were tested in an in vitro transcription assay with a HeLa cell nuclear extract (FIG. 21A). The effects of the polyamides on basal transcription by RNA polymerase II was monitored with a nuclear extract prepared from HeLa cells (J. D. Dignam, P. L. Martin, B. S. Shastry, R. G. Roeder, Describe eukaryotic gene transcription with purified components Meth. Enzymol. 101, 582 (1983)). The human lymphloid cell line H9 (ATCC HTB 176) was grown in suspension culture in RPMI medium (Bio Whittaker) supplemented with 10% fetal calf serum (Tissue Culture Biological). Whole cell extracts of H9 cells in log phase growth were prepared by hypotonic lysis and contained 20 mg/ml protein, as determined by the Bradford reaction. Run-off RNA transcripts of ˜300 bases (CMV MIEP linked to a guanine-less cassette, plasmid pEIB-GL and ˜500 bases (pHIV LTR-CAT) where obtained with EcoRI-digested plasmid DNA (100 ng per 25 μL reaction).
Polyamide-DNA complexes were allowed to form at ambient temperature for 30 min prior to addition of the nuclear extract. […] RNA was purified by extraction with RNAzol (TelTest, Friendswood, Tex.) and analyzed by electrophoresis on a denaturing (8.3 M urea) 6% polyacrylamide gel. […]

[3] = tested on: 5′-AGTGAA-3′ within the IE86 binding site; set-up: species or system human cytomegalovirus; settings: 1-200 nM
Excerpt: as §1

wild-type HIV-1 promoter = experiment: HIV-1 transcription in vitro with lymphoid cell nuclear extract; format: biochemical; settings: read-out: polyamide concentration for fifty percent inhibition of HIV-1 transcription
Experimental: The recognition sites for polyamide HIV-1 are of the form 5′-WGCWGCW-3″ (where W=A or T). Since a pyrrole-pyrrole pair can recognize either an A-T base pair or a T-A base pair, polyamide HIV-1 will recognize both the 5′ and 3′ flanking sequences of the HIV-1 TATA element. […] This concentration corresponds to only a 16-fold excess of polyamide over specific binding sites in the HIV-1 plasmid DNA (3 nM).

[4] = tested on: 5′-TCGTCGA-3′ (reversed orientation match site); format: binding
[5] = tested on: TBP binding to the TATA box region of the adenovirus major late promoter; experiment: Gel mobility shift, TBP binding to adenovirus major late promoter TATA box; set-up: species or system human; settings: mismatch flanking sequences
Experimental: (§2) Regions of polyamide protection were determined by analysis of the digestion products on a 6% denaturing polyacrylamide sequencing gel. Storage phosphorimage analysis of the data was used to obtain dissociation constants for the binding reactions (using Kodak Storage Phosphor Screens and a Molecular Dynamics SF PhosphorImager). Recombinant human TBP (rhTBP) was obtained from Promega and was used in footprinting and gel mobility shift experiments as recommended. The reaction mixtures also contained 100 ng of poly dG-poly dC per 10 μL gel shift reaction or 50 μL footprinting reaction. For gel mobility shift assays, 6% polyacrylamide gels (20:1, acrylamide to bisacrylamide) contained 44 mM Tris-borate, pH 8.3, 1 mM EDTA, […] and 0.02% (v/v) NP-40. The same buffer was used for electrophoresis of 1 mm thick gels at 15 volts/cm for 2 hours at 4° C.

Ets-1 ΔN331/DNA complex = experiment: Gel mobility shift, Ets-1 binding to HIV-1 enhancer oligonucleotide
HIV-1 strain WEAU1.6 = experiment: HIV-1 replication in human PBMC, p24 ELISA; format: cell-based; settings: mismatch controls, alone or in combination
Experimental: PBMC were infected with the T cell-tropic HIV-1 strain WEAU1.6, or the macrophage-tropic strain SF162. […] Polyamides were added to the culture medium and the levels of HIV-1 p24 viral capsid protein in the culture media were determined on subsequent days using a standard ELISA assay.
Human PBMC were separated from whole blood collected from normal adult volunteers by density gradient centrifugation as described. […] Human PBMC were activated with 2 μg/mL PHA and 20 units/mL of IL-2 for 2-3 days prior to HIV-1 infection. […] Free virus was removed by washing the cells in medium, and polyamides added to the culture. […] Virus replication in culture was measured by HIV-1 p24 viral capsid antigen ELISA (DuPont Medical Products, Boston, Mass.).
PBMC cultures were infected with the primary HIV-1 isolate WEAU 1.6 (kindly provided by G. Shaw), and virus replication measured by release of p24 capsid antigen into the medium that was detected by antibody-capture ELISA (Dupont). Each experiment involved a separate PBMC donor.

[6] = tested on: rhTBP binding to the HIV-1 TATA element; experiment: DNase I footprinting, inhibition of TBP binding to HIV-1 LTR fragment; set-up: species or system human
Experimental: as §2

[7] = tested on: 5′-TGCTGCA-3′ (the HIV-1 target sequence); format: binding

## CN(C)CCCNC(=O)CCNC(=O)c1cc(NC(=O)c2nc(NC(=O)CCNC(=O)c3cc(NC(=O)c4nc(NC(=O)CCCNC(=O)c5cc(NC(=O)c6nc(NC(=O)CCNC(=O)c7cc(NC(=O)c8nccn8C)cn7C)cn6C)cn5C)cn4C)cn3C)cn2C)cn1C [polyamide 4, ImPy-β-ImPy-γ-ImPy-β-ImPy-β-Dp]
[1]
  interference with IE86 binding: did not interfere
[2]
  inhibition of CMV transcription: fails to inhibit
[3]
  footprint on the CMV fragment: did not give a footprint
wild-type HIV-1 promoter
  IC50: ~50 nM
[4]
  fold lower affinity for 5′-TCGTCGA-3′ than for 5′-TGCTGCA-3′: ~10 fold
[5]
  inhibition of TBP binding to adenovirus major late promoter TATA box: did not inhibit
Ets-1 ΔN331/DNA complex; polyamide preincubated with oligonucleotide, 100-400 nM
  effect on Ets-1 DNA-binding / complex formation: did not prevent
Ets-1 ΔN331/DNA complex; titration, mismatch polyamide
  effect on complex formation in the same concentration range: virtually no effect
HIV-1 strain WEAU1.6
  effect on the level of virus in the medium: had no effect
[6]; DNase I footprinting, 2.5-10 nM polyamide
  inhibition of TBP binding to the HIV-1 TATA element: inhibited
[6]; five-fold excess of polyamide over DNA binding sites
  polyamide concentration at which TBP binding is inhibited: 2.5 nM
[7]; Buffer A, 24° C.
  Equilibrium association constants, 5′-aTGCTGCA-3′: 1.5 × 10^10 (0.3) M^a
[7]; Buffer A, 37° C.
  Equilibrium association constants, 5′-aTGCTGCA-3′: 8.4 × 10^9 (2.3) M^a
[7]; Buffer B (140 mM KCl, 10 mM NaCl, 1 mM MgCl2, 1 mM spermine pH 7.2), 24° C.
  Equilibrium association constants, 5′-aTGCTGCA-3′: 1.9 × 10^10 (0.6) M^a
[7]; Buffer B, 37° C.
  Equilibrium association constants, 5′-aTGCTGCA-3′: 1.1 × 10^10 (0.2) M^a
[7]; polyamide 4 vs 8
  fold higher affinity relative to unlinked analog: ~6000 fold
